Where two headings read alike, the source gives them in different places.
Assays:
[1] = Replicon Assay (Example B), Alamar Blue cytotoxicity CC50; type: cell-based; conditions: human, lower value of the cell pair
Text: (§1) Thus, Huh-7 cells persistently infected with an HCV-RNA construct (Bartenschlager, R. Hepatitis C replicons: potential role for drug development. Nature Rev. Drug Discov. 1, 911-916 (2002)) comprising: 5′ and 3′ non-translated regions (NTR); the non-structural genes NS3 to NS5b; as well as the G418 drug resistance gene, neomycin, (for selection of cells carrying HCV replicon RNA) fused to the firefly Luciferase reporter gene (pFKI3889Iuc-ubi-neo/NS3-3′/ET) were used to determine the cell based antiviral activity of compounds using luciferase activity as an indirect readout of HCV RNA load. In this assay […] huh-7 cells persistently infected with the HCV subgenomic replicon construct above were plated/well in a 96 well tissue culture plate. The cells were allowed to attach overnight in DMEM medium supplemented with 10% FBS 1% NEAA, and 250 μg/ml gentamicin. The following day the medium was replaced with 200 μl/well of fresh medium as described above lacking gentamicin. Semilog dilutions of compounds in medium were then added to triplicate wells (non-edge) of the cultured cells to give a 0.1% DMSO final concentration. Plates were then incubated at 37° C. in an atmosphere of 5% CO2 and air for 72 h. […] The plate was then read at 535 nm (excitation) and 590 nm (emission) on a SpectraMax Gemini reader (Molecular Devices) to determine the number of viable cells by measuring the conversion of rezasurin (Alamar blue) to resorufin in response to mitochondrial activity. In order to determine the antiviral effect of these compounds EC50 values were determined by measuring the luciferase activity of the cells. Alamar blue solution was removed from the wells and replaced with 100 μl/well of medium along with 100 μl/well of Bright-Glo reagent and incubated at room temperature for 5 minutes before transferring 100 μl/well to a white bottom 96 well plate to read in a luminometer as described in the Bright-Glo Luciferase Assay System protocol (promega).

[2] = system: HCV subgenomic replicon in Huh-7 cells; experiment: Replicon Assay (Example B), luciferase readout EC50; type: cell-based; conditions: Hepatitis C virus, Huh-7, replicon assay, luciferase readout; upper value of the cell pair; read-out: Assay B EC50
Experimental: The activities of compounds of the invention against HCV in a cellular environment were analysed using a replicon assay as described below.
as §1

[3] = target: full length NS3/4a (Hepatitis C virus genotype 1b (isolate BK) (HCV), UniProt P26663); experiment: NS3 Protease Assay (Example A), FRET-based; type: biochemical
Summary of the method: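 Initial rates were taken from fluorescence progress curves over 30 min at room temperature, and IC50 was fitted across replicates. In-house full-length NS3/4a cleaved a FRET peptide (5-FAMsp/QXL520) from the NS4A/B site. Medium: 50 mM Tris pH8, 20 mM DTT, 1% CHAPS, 10% glycerol, 5% DMSO.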

[4] = HCV NS3 protease assay, full length NS3/4a, read-out: Assay A IC50 (μM) average
[5] = read-out: IC50 against the protease activity of the full length NS3/4a

Chain of full length NS3/4a (P26663 1027-1657): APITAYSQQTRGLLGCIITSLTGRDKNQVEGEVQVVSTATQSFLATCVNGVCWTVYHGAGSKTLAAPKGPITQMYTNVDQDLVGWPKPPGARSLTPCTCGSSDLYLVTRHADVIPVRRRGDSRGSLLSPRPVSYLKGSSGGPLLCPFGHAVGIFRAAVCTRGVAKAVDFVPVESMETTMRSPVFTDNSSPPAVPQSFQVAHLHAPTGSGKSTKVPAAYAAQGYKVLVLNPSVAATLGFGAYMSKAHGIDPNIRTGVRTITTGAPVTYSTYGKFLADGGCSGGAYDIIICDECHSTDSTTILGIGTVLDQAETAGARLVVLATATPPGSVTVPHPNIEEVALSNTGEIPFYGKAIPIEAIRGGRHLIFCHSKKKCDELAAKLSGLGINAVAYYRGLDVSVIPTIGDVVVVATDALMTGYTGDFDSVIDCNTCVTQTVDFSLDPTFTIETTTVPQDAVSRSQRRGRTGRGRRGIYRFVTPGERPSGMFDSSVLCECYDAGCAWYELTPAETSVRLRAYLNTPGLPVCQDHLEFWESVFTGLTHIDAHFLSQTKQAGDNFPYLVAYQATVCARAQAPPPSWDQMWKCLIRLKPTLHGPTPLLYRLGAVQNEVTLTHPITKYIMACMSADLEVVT

Compound	CC50 at 72 h [1] [nM]	EC50 [2] [nM]	IC50 [3, 4] [µM]	IC50 [3, 5] [µM]
CC[C@@H](N[C@@H](C)CC(N)=O)c1ccc(Cl)c(C(=O)c2ccc(-n3cccn3)nc2)c1F [Example 139, (3S)-3-{[(1R)-1-(4-chloro-2-fluoro-3-{[6-(1H-pyrazol-1-yl)pyridin-3-yl]carbonyl}phenyl)-propyl]amino}-butanamide]	> 3000	420	0.33	< 1
CC[C@@H](N[C@@H](C)CC(N)=O)c1ccc(Cl)c(C(=O)c2cc[n+]([O-])cc2)c1F [Example 142, (S)-3-{(R)-1-[4-Chloro-2-fluoro-3-(1-oxy-pyridine-4-carbonyl)-phenyl]-propylamino}-butyramide]	> 3000	> 3000	0.3	< 1
CC[C@@H](N[C@@H](C)CC(N)=O)c1ccc(Cl)c(C(=O)c2ccc(C(=O)O)cc2)c1F [Example 144, 4-({3-[(1R)-1-{[(2S)-1-Carbamoylpropan-2-yl]amino}propyl]-6-chloro-2-fluorophenyl}carbonyl)-benzoic acid]	> 3000	> 3000	1.2	1 to 5
CC[C@@H](N[C@@H](C)CC(N)=O)c1ccc(Cl)c(C(=O)c2cncc(N)c2)c1F [Example 145, (3S)-3-{[(1R)-1-{3-[(5-aminopyridin-3-yl)carbonyl]-4-chloro-2-fluorophenyl}propyl]-amino}butanamide]	> 10000	1000	0.84	
CC[C@@H](N[C@@H](C)CC(N)=O)c1ccc(Cl)c(C(=O)c2ccc(=O)[nH]c2)c1F [Example 147, (3S)-3-{[(1R)-1-{4-chloro-2-fluoro-3-[(6-oxo-1,6-dihydropyridin-3-yl)carbonyl]-phenyl}propyl]amino}-butanamide]	> 10000	2100	0.39	
CC[C@@H](N[C@@H](C)CC(N)=O)c1ccc(Cl)c(C(=O)c2ccc(N)cn2)c1F [Example 149, (3S)-3-{[(1R)-1-{3-[(5-aminopyridin-2-yl)carbonyl]-4-chloro-2-fluorophenyl}propyl]amino}-butanamide]	> 10000	39	0.2	
CC[C@@H](N[C@@H](C)CC(N)=O)c1ccc(C)c(C(=O)c2ccccc2)c1F [Example 150, (3S)-3-{[(1R)-1-(3-benzoyl-2-fluoro-4-methylphenyl)propyl]-amino}butanamide]	> 10000	310	0.068	
CC[C@@H](N[C@@H](C)CC(N)=O)c1ccc(OC)c(C(=O)c2ccccc2)c1F [Example 152, (3S)-3-{[(1R)-1-(3-benzoyl-2-fluoro-4-methoxyphenyl)propyl]-amino}butanamide]	> 10000	66	0.051	
C[C@@H](CC(N)=O)N[C@@H](c1ccc(Cl)c(C(=O)c2ccc(N)nc2)c1F)C1CC1 [Example 154, (3S)-3-{[(R)-{3-[(6-aminopyridin-3-yl)carbonyl]-4-chloro-2-fluorophenyl}(cyclo-propyl)methyl]amino}-butanamide]	> 10000	37	0.2	
CC[C@@H](N[C@@H](C)CC(N)=O)c1ccc(F)c(C(=O)c2ccccc2)c1F [Example 157, (3S)-3-{[(1R)-1-(3-benzoyl-2,4-difluorophenyl)propyl]-amino}butanamide]	> 10000	610	0.045	
CC[C@@H](N[C@@H](C)CC(N)=O)c1ccc(Cl)c(C(=O)c2ccc(-n3cc(CO)cn3)nc2)c1F [Example 159, (3S)-3-{[(1R)-1-[4-chloro-2-fluoro-3-({6-[4-(hydroxymethyl)-1H-pyrazol-1-yl]pyridin-3-yl}carbonyl)phenyl]-propyl]amino}-butanamide]	> 10000	100	0.24	
CC[C@@H](NCCC(N)=O)c1ccc(Cl)c(C(=O)c2cccnc2)c1F [Example 162, 3-{[(1R)-1-{4-Chloro-2-fluoro-3-[(pyridin-3-yl)carbonyl]phenyl}propyl]amino}propanamide]	> 3000	> 3000	0.59	< 1
CC[C@@H](NCCC(N)=O)c1ccc(Cl)c(C(=O)c2ccccc2)c1F [Example 167, 3-{[(1R)-1-(3-Benzoyl-4-chloro-2-fluorophenyl)propyl]amino}-propanamide]	> 3000	630	0.098	< 1
CC[C@@H](NCC1(C(N)=O)CC1)c1ccc(Cl)c(C(=O)c2cccnc2)c1F [Example 168, 1-({[(1R)-1-{4-Chloro-2-fluoro-3-[(pyridin-3-yl)carbonyl]phenyl}propyl]amino}methyl)-cyclopropane-1-carboxamide]	> 3000	> 3000	0.55	< 1
CC[C@H](NCCO)c1ccc(Cl)c(C(=O)c2ccccc2)c1F [Example 171, 2-{[(1S)-1-(3-benzoyl-4-chloro-2-fluorophenyl)propyl]-amino}ethan-1-ol]	> 3000	> 3000	0.056	< 1
CC[C@@H](NCCO)c1ccc(Cl)c(C(=O)c2ccccc2)c1F [Example 176, 2-{[(1R)-1-(3-benzoyl-4-chloro-2-fluorophenyl)propyl]amino}ethan-1-ol]	> 3000	> 3000	0.29	
CC[C@H](N[C@@H](C)CO)c1ccc(Cl)c(C(=O)c2ccc(N)nc2)c1F [Example 177, (2S)-2-{[(1S)-1-{3-[(6-aminopyridin-3-yl)carbonyl]-4-chloro-2-fluorophenyl}propyl]amino}propan-1-ol]	> 3000	> 3000	0.18	
CC[C@H](N[C@H](C)CO)c1ccc(Cl)c(C(=O)c2ccc(N)nc2)c1F [Example 178, (2R)-2-{[(1S)-1-{3-[(6-aminopyridin-3-yl)carbonyl]-4-chloro-2-fluorophenyl}propyl]-amino}propan-1-ol]	> 3000	250	0.088	
CCC(NC(C)(C)CO)c1ccc(Cl)c(C(=O)c2ccccc2)c1F (centres unmarked) [Example 179, 2-{[1-(3-benzoyl-4-chloro-2-fluorophenyl)-propyl]amino}-2-methylpropan-1-ol]	> 3000	300	0.063	
CC[C@@H](NCCC(N)=O)c1ccc(Cl)c(C(=O)c2ccc(N)nc2)c1F [Example 180, 3-{[(1R)-1-{3-[(6-Aminopyridin-3-yl)carbonyl]-4-chloro-2-fluorophenyl}propyl]amino}propanamide]	> 3000	270	0.14	
CC[C@@H](NCCC(N)=O)c1ccc(Cl)c(C(=O)c2cnc(N)cn2)c1F [Example 183, 3-{[(1R)-1-{3-[(5-Aminopyrazin-2-yl)carbonyl]-4-chloro-2-fluorophenyl}propyl]amino}propanamide]	> 10000	2200	0.5	
COc1ccc([C@H](N[C@@H](C)CC(N)=O)C2CC2)c(F)c1C(=O)c1cccc(F)c1 [Example 224, (3S)-3-{[(R)-cyclopropyl({2-fluoro-3-[(3-fluorophenyl)carbonyl]-4-methoxyphenyl})methyl]amino}butanamide]	> 3000	190	0.081	
CC[C@@H](CC(N)=O)N[C@H](CC)c1ccc(Cl)c(C(=O)c2ccc(N)nc2)c1F [Example 225, (3S)-3-{[(1R)-1-{3-[(6-aminopyridin-3-yl)carbonyl]-4-chloro-2-fluorophenyl}propyl]amino} pentanamide]	> 3000	28	0.35	
CC[C@@H](N[C@@H](C)CC(N)=O)c1ccc(Cl)c(C(=O)c2cccc(O)c2)c1F [Example 227, (3S)-3-{[(1R)-1-{4-chloro-2-fluoro-3-[(3-hydroxyphenyl)carbonyl]phenyl}propyl]amino} butanamide]	> 3000	11	0.15	< 1

— patent publication US9145354B2, “Pharmaceutical compounds” (priority 2011, dated 2015)
